# Test: UV absorption of diluted aqueous dispersions in UV spectrophotometer
# Format: physicochemical
# Details: pure lipid solution in 96% ethanol or aqueous surfactant solution of the same concentration; 250-450 nm
# Text: The UV-blocking action of the agent was studied by measuring the UV absorption of the lipid particle dispersion in a UV spectrophotometer. The criterion was the reduced permeability of the lipid particle dispersion for UV radiation in the wavelength range up 280 nm (UV C), from 280 nm to 315 nm (=UV B) und from 315 nm to 400 nm (UV A). A further test to quantify the UV-blocking action was the determination of the reduced permeability of particle films using the standard test with Transpore™ tape (B. L. Diffey, P. M. Farr, Sunscreen protection against UVB, UVA and blue light; an in vivo and in vitro comparison, British Journal of Dermatology 124, 1991, 258-263). The particle films were produced by spreading the particle dispersion on Transpore™ tape and then air-drying. The films thus produced were then glued onto one side of a quartz cuvette and the UV permeability was determined by a photometer. The measurements took place against the corresponding references, e.g. O/W emulsion with the same lipid content as well as UV blockers incorporated into the oil phase of an emulsion.
# A lipid particle dispersion consisting of 10% (m/m) cetyl palmitate, 1.2% (m/m) polyglycerol methylglucose distearate (Tego Care 450) and water was produced by high pressure homogenization. The mixture of lipid and emulsifier was melted at 75° C. and dispersed in the aqueous solution with an Ultra-Turrax T25 with dispersing tool S25, Janke und Kunkel (8000 rpm for 1 minute). The obtained pre-emulsion was then homogenized with an APV Gaulin LAB 40 homogenizer at 500 bar with 3 cycles at 75° C. Lipid particles resulted with a PCS diameter of 221 nm and a polydispersity index of 0.06. For comparison, an emulsion system was produced in which the 10% cetyl palmitate was replaced by 10% Miglyol 812. The production parameter was dispersion with the Ultra-Turrax (8000 rpm for 1 minute). The UV-blocking action was examined with a Uvikon 940 spectrophotometer, Kontron, in the wavelength range of 250-450 nm. […]
row,Compound,absorption over the whole measurement range
1,polyglycerol methylglucose distearate [Tego Care 450],did not absorb
2,CCCCCCCCCCCCCCCCCCO [stearyl alcohol],did not absorb
3,CCCCCCCCCCCCCCCCOC(=O)CCCCCCCCCCCCCCC [cetyl palmitate],did not absorb

# — patent publication US6814959B1, “UV radiation reflecting or absorbing agents, protecting against harmful UV radiation and reinforcing the natural skin barrier” (PharmaSol GmbH, priority 1999, dated 2004)
